Key:
Test in all cases: AUC of viability dose-response curve (% viability x log10 dose units); higher = less sensitive
Settings in all cases: 48 h
[1] = test system: NOMO1
How it was run: (§1)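 Area under the curve was integrated by trapezoidal rule from a log-logistic fit of normalised viability, with curves exceeding full viability scaled and quality-control failures removed. The fit had four parameters over log10 doses. Viability came from CellTiter-Glo One luminescence, normalised per plate to DMSO and cell-free wells, after leukemia cells adapted to each medium (500 or 1000 cells/well, 1536-well plates) were exposed to library compounds in DMSO for 48 h at 37°C. The 11 threefold doses ran from 47 μM to 0.79 nM.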

[2] = test system: P12-Ichikawa
How it was run: as §1

[3] = test system: SEM cells
How it was run: as §1

[4] = RPMI 5 mM glucose + 10% dialyzed FBS

Row | SMILES | AUC of viability dose-response curve ([1]; HPLM + 10% dialyzed FBS) | AUC of viability dose-response curve ([1]; RPMI 5 mM glucose + 10% FBS) | AUC of viability dose-response curve [1, 4] | AUC of viability dose-response curve ([2]; HPLM + 10% dialyzed FBS) | AUC of viability dose-response curve ([2]; RPMI 5 mM glucose + 10% FBS) | AUC of viability dose-response curve [2, 4] | AUC of viability dose-response curve ([3]; HPLM + 10% dialyzed FBS) | AUC of viability dose-response curve ([3]; RPMI 5 mM glucose + 10% FBS) | AUC of viability dose-response curve [3, 4]
1 | COc1ccc(-c2nc3cc(C4=NNC(=O)CC4C)ccc3[nH]2)cc1 (centres undefined) | 445 | 459 | 461 | 473 | 465 | 470 | 467 | 462 | 465
2 | CC(C)c1ccc2oc3nc(N)c(C(=O)O)cc3c(=O)c2c1 | 469 | 470 | 472 | 467 | 470 | 474 | 466 | 449 | 462
3 | CNC(=O)c1cc(Oc2ccc(NC(=O)Nc3cc(C(C)(C)C)nn3-c3ccc4ncccc4c3)c(F)c2)ccn1 | 433 | 452 | 450 | 464 | 465 | 469 | 375 | 359 | 335
4 | NC/1=N/C(=O)N(/C=C1)[C@H]2CC[C@@H](CO)O2 | 435 | 404 | 422 | – | – | – | 437 | 415 | 385
5 | O=P(O)(O)C(O)(Cc1cccnc1)P(=O)(O)[O][Na] (centres undefined) | – | – | – | – | – | – | 411 | 409 | 406
6 | CC1=C(C)C2=C(S1)[N]3C(=NN=C3[C@H](CC(=O)OC(C)(C)C)/N=C2/C4=CC=C(Cl)C=C4)C | 292 | 286 | 296 | 311 | 313 | 305 | 249 | 264 | 251
7 | COc1cc(N2CCC(N3CCN(C)CC3)CC2)ccc1Nc1ncnc(Nc2ccccc2[S+](=O)([O-])C(C)C)n1 | – | – | – | 447 | 458 | 451 | 361 | 354 | 400
8 | O=C(Oc1ccc([N+](=O)[O-])cc1)N1CCN(Cc2cccc(Oc3ccccc3)c2)CC1 | 469 | 460 | 451 | 468 | 475 | 457 | 433 | 453 | 468
9 | CCC(=O)O[C@@]1([C@H](C)C[C@H]2[C@@H]3C[C@H](F)\C4=C\C(=O)\C=C/[C@]4(C)[C@@]3(F)[C@@H](O)C[C@]12C)C(=O)SCF | 455 | 465 | 439 | 342 | 292 | 290 | 328 | 325 | 280
10 | CN(C)[C@H]\1[C@@H]2[C@@H](O)[C@@H]\3C(=C)C4=C(C(=CC=C4)O)C(=O)C3=C(\O)[C@@]2(O)C(=O)\C(=C1O)C(N)=O | 449 | 462 | 474 | 465 | 468 | 472 | 452 | 463 | 466
11 | c1cc(OCCN2CCCCC2)cc(-c2n[nH]c3ccc(-c4nc[nH]n4)cc23)c1 | 467 | 463 | 468 | – | – | – | 412 | 441 | 413
12 | N/C(=N\C(=O)c1nc(Cl)c(N)nc1N)NCc1ccccc1 | 448 | 405 | 447 | 465 | 449 | 436 | 449 | 407 | 436
13 | O=C1[O][Pt]2([NH]C3CCCCC3[NH]2)[O]C1=O (centres undefined) | 400 | 403 | 419 | – | – | – | – | – | –
14 | C=C1C[C@@]2(O)O[C@@]3(C[C@H]2C(C)C)[C@@H](C)CC[C@@H]13 | 466 | 451 | 465 | 469 | 460 | 449 | – | – | –
15 | CC1=C(/C=C/C(C)=C/C=C/C(C)=C/C(=O)Nc2ccc(O)cc2)C(C)(C)CCC1 | 347 | 348 | 341 | 326 | 311 | 276 | 301 | 322 | 274
16 | CNC(=O)c1c(F)cccc1Nc1nc(Nc2cc3c(cc2OC)CCN3C(=O)CN(C)C)nc2[nH]ccc12 | 384 | 459 | 454 | 446 | 463 | 454 | 269 | 253 | 272
17 | CCC(CC)[C@H](NC(C)=O)[C@@H]1[C@H](O)[C@@H](C(=O)O)C[C@H]1NC(=N)N | 404 | 407 | 395 | – | – | – | 335 | 394 | 365
18 | COc1cc2ncnc(Nc3ccc(F)c(Cl)c3)c2cc1OCCCN1CCOCC1 | 425 | 452 | 443 | 446 | 446 | 463 | 408 | 419 | 425
19 | CCCCOc1ccc(C(=O)Nc2ccc(F)cc2F)cc1 | 437 | 420 | 433 | 423 | 422 | 408 | 377 | 383 | 385
20 | CCCCc1oc2ccc(NS(C)(=O)=O)cc2c1C(=O)c1ccc(OCCCN(CCCC)CCCC)cc1 | 367 | 332 | 361 | 414 | 409 | 413 | – | – | –
21 | c1ccc(-c2nn3c(c2-c2ccnc4cc(OCCN5CCOCC5)ccc24)CCC3)nc1 | 450 | 467 | 471 | 438 | 420 | 448 | 458 | 468 | 472
22 | CC(C)(O)CNc1nc(Nc2ccnc(C(F)(F)F)c2)nc(-c2cccc(C(F)(F)F)n2)n1 | 442 | 409 | 418 | 371 | 369 | 381 | 408 | 363 | 382
23 | CC1(C)OC/2=C(\[C@H](NCC3=CC=CC=C3)[C@@H]1O)C(=O)C4=CC=CC=C4C2=O | – | – | – | 424 | 397 | 416 | 417 | 363 | 413
24 | N=C(N)c1ccc(OCCCCCOc2ccc(C(=N)N)cc2)cc1 | 441 | 447 | 441 | 467 | 456 | 458 | 457 | 463 | 465

Row | SMILES | AUC of viability dose-response curve ([1]; HPLM + 10% dialyzed FBS) | AUC of viability dose-response curve ([1]; RPMI 5 mM glucose + 10% FBS) | AUC of viability dose-response curve [1, 4] | AUC of viability dose-response curve ([2]; HPLM + 10% dialyzed FBS) | AUC of viability dose-response curve ([2]; RPMI 5 mM glucose + 10% FBS) | AUC of viability dose-response curve [2, 4] | AUC of viability dose-response curve ([3]; HPLM + 10% dialyzed FBS) | AUC of viability dose-response curve ([3]; RPMI 5 mM glucose + 10% FBS) | AUC of viability dose-response curve [3, 4]
25 | COc1ccc2cc(-c3[nH]c(-c4ccc([S+](C)[O-])cc4)nc3-c3ccncc3)ccc2c1 (centres undefined) | 461 | 390 | 435 | 472 | 468 | 464 | 451 | 463 | 460
26 | Cc1cnc(Nc2ccc(OCCN3CCCC3)cc2)nc1Nc1cccc([S+](=O)([O-])NC(C)(C)C)c1 | 477 | 470 | 473 | 469 | 471 | 468 | 427 | 458 | 447
27 | Cn1cc(-c2ccncc2)c(-c2ccc(OCc3ccc4ccccc4n3)cc2)n1 | 454 | 451 | 463 | 449 | 433 | 440 | 469 | 445 | 465
28 | CCOC(=O)c1ccc(C#Cc2ccc3c(c2)C(C)(C)CCS3)nc1 | 436 | 467 | 450 | 470 | 469 | 475 | 472 | 477 | 446
29 | CN1C(=O)COc2c(C(=O)NC3CN4CCC3CC4)cc(Cl)cc21 (centres undefined) | 448 | 464 | 439 | – | – | – | 457 | 453 | 471
30 | CC1(C)O[C@H]2CC(=O)OC[C@]23[C@H]2CC[C@@]4(C)[C@H](c5ccoc5)OC(=O)[C@H]5O[C@]54[C@]2(C)C(=O)C[C@@H]13 | 462 | 465 | 461 | 468 | 446 | 469 | 463 | 444 | 438
31 | COc1ccc(-c2c(-c3ccc(O)cc3O)n[nH]c2C)cc1 | 449 | 467 | 466 | 465 | 464 | 468 | 428 | 405 | 431
32 | CC(C)[C@@H](N(CCCN)C(=O)C1=CC=C(C)C=C1)C/2=C(\CC3=CC=CC=C3)C(=O)C4=C(O2)C=C(Cl)C=C4 | – | – | – | – | – | – | 116 | 96.8 | 99.8
33 | Cc1nc2c([nH]1)-c1ccccc1N(C(=O)c1ccc(NC(=O)c3ccccc3-c3ccccc3)cc1)CC2 | 470 | 444 | 468 | 466 | 467 | 471 | 451 | 457 | 449
34 | OC1=C(C=CC=C1)C2=CC=C(C=C2)C3=CSC4=C3C(=C(/C#N)C(=O)N4)/O | 462 | 449 | 453 | 448 | 456 | 453 | 453 | 434 | 457
35 | CN(C)c1ccc(C(=O)NCCCCCCC(=O)NO)cc1 | 358 | 343 | 354 | 329 | 330 | 317 | 311 | 314 | 316
36 | C[C@H]1[C@@H](CC(C[C@H]2O[C@@H]3O[C@]4(C)CC[C@H]5[C@H](C)CC[C@@H]([C@H]2C)[C@@]35OO4)C[S+](=O)([O-])c2ccc(COC(=O)N(C)C)cc2)O[C@@H]2O[C@]3(C)CC[C@H]4[C@H](C)CC[C@@H]1[C@@]24OO3 | 301 | 329 | 299 | 351 | 348 | 341 | 297 | 284 | 284
37 | COc1ccc(CCC(=O)Nc2nc3ccc(Cl)cc3s2)cc1OC | 454 | 458 | 455 | 466 | 472 | 462 | 463 | 461 | 472
38 | CCCn1c(=O)c2[nH]c(-c3cnn(Cc4cccc(C(F)(F)F)c4)c3)nc2n(CC)c1=O | 394 | 443 | 413 | 446 | 388 | 438 | 470 | 467 | 467
39 | Cl.Cl.Fc1ccc(C(OCCN2CCN(CCCc3ccccc3)CC2)c2ccc(F)cc2)cc1 | 438 | 457 | 446 | 470 | 467 | 465 | 460 | 458 | 458
40 | c1cc(-c2sc(-c3ccncc3)c(-c3ccncc3)c2-c2ccncc2)ccn1 | 472 | 439 | 464 | 472 | 466 | 471 | 377 | 350 | 365
41 | COc1cc2c(NC3CCN(C(C)C)CC3)nc(C3CCCCC3)nc2cc1OCCCN1CCCC1 | 444 | 455 | 438 | 449 | 445 | 441 | 419 | 440 | 454
42 | CCCn1c(=O)c2[nH]c(C34CC5CC3C[C@@H](C5)C4)nc2n(CCC)c1=O | 454 | 442 | 463 | 462 | 410 | 460 | 477 | 416 | 457
43 | c1ccc2c(Oc3nc(Nc4ccc(N5CCOCC5)cc4)c4ncn(C5CCCCC5)c4n3)cccc2c1 | 439 | 440 | 466 | 451 | 462 | 466 | 462 | 452 | 458
44 | COc1ccc(Cn2ccc3ccc(C(=O)NO)cc32)cc1 | 446 | 461 | 469 | – | – | – | 464 | 460 | 462
45 | CN1[C@@H]2CC(O)C[C@H]1[C@@H]1O[C@@H]12 (some centres undefined) | 451 | 453 | 451 | 455 | 448 | 454 | – | – | –
46 | CCN(CC)CCOC1=CC=C(NC2=NC=C3\C=C(/C(=O)N(C)C3=N2)C4=C(Cl)C=CC=C4Cl)C=C1 | 343 | 359 | 355 | 371 | 365 | 367 | – | – | –
47 | CN(C(=O)c1ccc(F)cc1C(F)(F)F)C1CCN(c2nnc(-c3ccnn3C)c3ccccc23)CC1 | – | – | – | 387 | 365 | 355 | 331 | 373 | 326

Reference: the supplement of paper PMC11451515
